This note sets out measurements from ChEMBL document CHEMBL3875175, “Multi-targeting exploration of new 2-aminothiazolyl quinolones: Synthesis, antimicrobial evaluation, interaction with DNA, combination with topoisomerase IV and penetrability into cells” (Eur J Med Chem, 2016).

≈ marks a conversion by molar mass, not a printed value.

The nature of experiment [1]: Antifungal activity against Candida utilis after 24 hrs by two fold serial dilution method. In kind it is functional. To be noted: Cyberlindnera jadinii.
The subject of the next experiment is Candida albicans. In words: Antifungal activity against Candida albicans ATCC 76615 after 24 hrs by two fold serial dilution method. In kind it is functional. To be noted: ATCC 76615, 24 h.
In a further experiment the test system is Proteus vulgaris. In words: Antibacterial activity against Bacillus proteus ATCC 13315 after 24 hrs by two fold serial dilution method. The note with it: ATCC 13315, 24 h. In kind it is functional.
For experiment [2], the system named is Staphylococcus aureus. Put plainly: Antibacterial activity against Staphylococcus aureus ATCC 25923 after 24 hrs by two fold serial dilution method. The note with it: ATCC 25923, 24 h. In kind it is functional.
A further experiment has as its system Shigella dysenteriae. In words: Antibacterial activity against Shigella dysenteriae after 24 hrs by two fold serial dilution method. In kind it is functional.
Experiment [3] concerns Staphylococcus aureus. In words: Antibacterial activity against methicillin-resistant Staphylococcus aureus N315 after 24 hrs by two fold serial dilution method. In kind it is functional. To be noted: N315, 24 h.
A further experiment deals with Saccharomyces cerevisiae. Put plainly: Antifungal activity against Beer yeast after 24 hrs by two fold serial dilution method. In kind it is functional.
The subject of the next experiment is Salmonella typhi. In words: Antibacterial activity against Bacillus typhi after 24 hrs by two fold serial dilution method. In kind it is functional, Salmonella enterica subsp. enterica serovar Typhi. To be noted: Salmonella enterica.
Experiment [4] relates to Escherichia coli. Put plainly: Antibacterial activity against Escherichia coli JM109 after 24 hrs by two fold serial dilution method. In kind it is functional. To be noted: JM109, 24 h.
Another experiment has as its system Micrococcus luteus. In words: Antibacterial activity against Micrococcus luteus ATCC 4698 after 24 hrs by two fold serial dilution method. The note with it: NCTC 2665, 24 h. In kind it is functional.
The subject of a further experiment is Bacillus spizizenii. In words: Antibacterial activity against Bacillus subtilis ATCC 6633 after 24 hrs by two fold serial dilution method. In kind it is functional. The note with it: ATCC 6633, 24 h.
The nature of experiment [5]: Antifungal activity against Candida mycoderma after 24 hrs by two fold serial dilution method. In kind it is functional. The note with it: Pichia norvegensis.
The test system of experiment [6] is Escherichia coli. In words: Antibacterial activity against Escherichia coli DH52 after 24 hrs by two fold serial dilution method. In kind it is functional. To be noted: DH52, 24 h.
Another experiment concerns Aspergillus flavus. Put plainly: Antifungal activity against Aspergillus flavus after 24 hrs by two fold serial dilution method. In kind it is functional.
The test system of a further experiment is Pseudomonas aeruginosa. In words: Antibacterial activity against Pseudomonas aeruginosa ATCC 27853 after 24 hrs by two fold serial dilution method. In kind it is functional. The note with it: ATCC 27853, 24 h.

Broadly, the MIC80 is an inhibitory concentration at the 80% level, which refers to growth in some studies and to a panel of isolates in others. A higher MIC80 goes with weaker potency. By MIC is commonly meant the lowest concentration found to suppress growth. Higher therefore signals a need for much substance. Regarding `CCCCCn1cc(-c2cnc(N)s2)c(=O)c2cc(F)cc(F)c21`, the MIC80 in [1] came to 64 µg/mL (≈ 183 µM); in the experiment with Candida albicans, 64 µg/mL (≈ 183 µM); with Saccharomyces cerevisiae it was 128 µg/mL (≈ 366 µM); in experiment [5], 32 µg/mL (≈ 91.6 µM); with Aspergillus flavus, 16 µg/mL (≈ 45.8 µM). In addition, the MIC against Proteus vulgaris was found to be 64 µg/mL (≈ 183 µM); with Staphylococcus aureus [2], 256 µg/mL (≈ 733 µM); with Shigella dysenteriae, 16 µg/mL (≈ 45.8 µM); against Staphylococcus aureus [3] it was 32 µg/mL (≈ 91.6 µM); in the experiment with Salmonella typhi it was 16 µg/mL (≈ 45.8 µM); in the experiment with Escherichia coli [4], 64 µg/mL (≈ 183 µM). Also, the minimum inhibitory concentration (MIC) with Micrococcus luteus was 128 µg/mL (≈ 366 µM); against Bacillus spizizenii, 64 µg/mL (≈ 183 µM); against Escherichia coli [6], 32 µg/mL (≈ 91.6 µM); against Pseudomonas aeruginosa it was 16 µg/mL (≈ 45.8 µM).
In the case of `CCCCCCCn1cc(-c2cnc(N)s2)c(=O)c2cc(F)cc(F)c21`, the MIC80 was 64 µg/mL (≈ 170 µM) in experiment [1]; 32 µg/mL (≈ 84.8 µM) with Candida albicans; 16 µg/mL (≈ 42.4 µM) against Saccharomyces cerevisiae; 256 µg/mL (≈ 678 µM) in experiment [5]; 64 µg/mL (≈ 170 µM) in the experiment on Aspergillus flavus. Besides, the MIC against Proteus vulgaris is 32 µg/mL (≈ 84.8 µM); against Staphylococcus aureus [2] it was 256 µg/mL (≈ 678 µM); against Shigella dysenteriae, 32 µg/mL (≈ 84.8 µM); with Staphylococcus aureus [3], 128 µg/mL (≈ 339 µM); in the experiment on Salmonella typhi, 64 µg/mL (≈ 170 µM); in the experiment on Escherichia coli [4], 128 µg/mL (≈ 339 µM). The minimal inhibitory concentration (MIC) against Micrococcus luteus was 256 µg/mL (≈ 678 µM); against Bacillus spizizenii, 64 µg/mL (≈ 170 µM); in the experiment with Escherichia coli [6], 32 µg/mL (≈ 84.8 µM); in the experiment on Pseudomonas aeruginosa, 32 µg/mL (≈ 84.8 µM).
Consider `OC(Cn1cncn1)(Cn1cncn1)c1ccc(F)cc1F` [FLUCONAZOLE], for which the MIC80 in experiment [1] came to 8 µg/mL (≈ 26.1 µM); against Candida albicans, 1 µg/mL (≈ 3.27 µM); against Saccharomyces cerevisiae it was 16 µg/mL (≈ 52.2 µM); in experiment [5] it was 4 µg/mL (≈ 13.1 µM); against Aspergillus flavus, 256 µg/mL (≈ 836 µM).
As for `O=C(N[C@H](CO)[C@H](O)c1ccc([N+](=O)[O-])cc1)C(Cl)Cl` [CHLORAMPHENICOL], the minimal inhibitory concentration (MIC) worked out at 32 µg/mL (≈ 99 µM) with Proteus vulgaris; 16 µg/mL (≈ 49.5 µM) with Staphylococcus aureus [2]; 16 µg/mL (≈ 49.5 µM) against Shigella dysenteriae; 16 µg/mL (≈ 49.5 µM) with Staphylococcus aureus [3]; 32 µg/mL (≈ 99 µM) in the experiment on Salmonella typhi; 32 µg/mL (≈ 99 µM) with Escherichia coli [4]. The MIC against Micrococcus luteus stood at 8 µg/mL (≈ 24.8 µM); in the experiment with Bacillus spizizenii, 32 µg/mL (≈ 99 µM); against Escherichia coli [6] it was 32 µg/mL (≈ 99 µM); in the experiment on Pseudomonas aeruginosa, 32 µg/mL (≈ 99 µM).
In the case of `Nc1ncc(-c2cn(Cc3ccccc3Cl)c3c(F)cc(F)cc3c2=O)s1`, the MIC80 in experiment [1] was found to be 64 µg/mL (≈ 158 µM); in the experiment on Candida albicans, 128 µg/mL (≈ 317 µM); with Saccharomyces cerevisiae, 128 µg/mL (≈ 317 µM); in experiment [5], 64 µg/mL (≈ 158 µM); in the experiment with Aspergillus flavus it was 64 µg/mL (≈ 158 µM). The MIC in the experiment on Proteus vulgaris turned out to be 256 µg/mL (≈ 634 µM); in the experiment on Staphylococcus aureus [2], 128 µg/mL (≈ 317 µM); in the experiment with Shigella dysenteriae, 64 µg/mL (≈ 158 µM); against Staphylococcus aureus [3], 64 µg/mL (≈ 158 µM); against Salmonella typhi, 128 µg/mL (≈ 317 µM); against Escherichia coli [4] it was 128 µg/mL (≈ 317 µM). For the same compound, the MIC in the experiment on Micrococcus luteus stood at 64 µg/mL (≈ 158 µM); with Bacillus spizizenii, 256 µg/mL (≈ 634 µM); in the experiment on Escherichia coli [6], 128 µg/mL (≈ 317 µM); in the experiment on Pseudomonas aeruginosa it was 32 µg/mL (≈ 79.2 µM).
For `CCCCCCCCCCCCn1cc(-c2cnc(N)s2)c(=O)c2cc(F)cc(F)c21`, the MIC80 in experiment [1] is 64 µg/mL (≈ 143 µM); with Candida albicans, 128 µg/mL (≈ 286 µM); in the experiment with Saccharomyces cerevisiae, 128 µg/mL (≈ 286 µM); in experiment [5], 32 µg/mL (≈ 71.5 µM); with Aspergillus flavus, 256 µg/mL (≈ 572 µM). In addition, the MIC was 256 µg/mL (≈ 572 µM) in the experiment with Proteus vulgaris; 512 µg/mL (≈ 1140 µM) in the experiment with Staphylococcus aureus [2]; 128 µg/mL (≈ 286 µM) in the experiment on Shigella dysenteriae; 128 µg/mL (≈ 286 µM) with Staphylococcus aureus [3]; 64 µg/mL (≈ 143 µM) in the experiment with Salmonella typhi; 128 µg/mL (≈ 286 µM) with Escherichia coli [4]. Further, the MIC with Micrococcus luteus turned out to be 128 µg/mL (≈ 286 µM); with Bacillus spizizenii, 64 µg/mL (≈ 143 µM); with Escherichia coli [6], 256 µg/mL (≈ 572 µM); against Pseudomonas aeruginosa it was 32 µg/mL (≈ 71.5 µM).
On to `Nc1ncc(-c2cn(Cc3ccc(F)cc3)c3c(F)cc(F)cc3c2=O)s1`, for which the MIC80 came out at 64 µg/mL (≈ 165 µM) in experiment [1]; 32 µg/mL (≈ 82.6 µM) against Candida albicans; 32 µg/mL (≈ 82.6 µM) with Saccharomyces cerevisiae; 16 µg/mL (≈ 41.3 µM) in experiment [5]; 32 µg/mL (≈ 82.6 µM) against Aspergillus flavus. For the same compound, the MIC in the experiment with Proteus vulgaris stood at 64 µg/mL (≈ 165 µM); in the experiment on Staphylococcus aureus [2], 32 µg/mL (≈ 82.6 µM); against Shigella dysenteriae, 4 µg/mL (≈ 10.3 µM); in the experiment on Staphylococcus aureus [3], 16 µg/mL (≈ 41.3 µM); with Salmonella typhi, 16 µg/mL (≈ 41.3 µM); against Escherichia coli [4], 16 µg/mL (≈ 41.3 µM). In addition, the MIC against Micrococcus luteus is 16 µg/mL (≈ 41.3 µM); against Bacillus spizizenii it was 128 µg/mL (≈ 330 µM); with Escherichia coli [6] it was 32 µg/mL (≈ 82.6 µM); in the experiment with Pseudomonas aeruginosa it was 64 µg/mL (≈ 165 µM).
Take `CCCCCCCCCCn1cc(-c2cnc(N)s2)c(=O)c2cc(F)cc(F)c21`: the MIC80 in experiment [1] stood at 128 µg/mL (≈ 305 µM); against Candida albicans it was 64 µg/mL (≈ 153 µM); in the experiment on Saccharomyces cerevisiae, 64 µg/mL (≈ 153 µM); in [5], 64 µg/mL (≈ 153 µM); in the experiment on Aspergillus flavus, 64 µg/mL (≈ 153 µM). For the same compound, the MIC against Proteus vulgaris was found to be 128 µg/mL (≈ 305 µM); against Staphylococcus aureus [2] it was 512 µg/mL (≈ 1220 µM); against Shigella dysenteriae it was 64 µg/mL (≈ 153 µM); against Staphylococcus aureus [3], 256 µg/mL (≈ 610 µM); against Salmonella typhi it was 256 µg/mL (≈ 610 µM); in the experiment on Escherichia coli [4] it was 64 µg/mL (≈ 153 µM). Moreover, the MIC against Micrococcus luteus is 128 µg/mL (≈ 305 µM); against Bacillus spizizenii, 256 µg/mL (≈ 610 µM); with Escherichia coli [6], 64 µg/mL (≈ 153 µM); with Pseudomonas aeruginosa, 64 µg/mL (≈ 153 µM).
